Molecules are shown by their SMILES.

For 24 compounds, Emax results are on record in US8716284B2, “Adamantyl diamide derivatives and uses of same” (H. Lundbeck A/S, priority 2008, dated 2014).

T1 sequence (P31424 21-1171 isoform P31424-2 limits assumed): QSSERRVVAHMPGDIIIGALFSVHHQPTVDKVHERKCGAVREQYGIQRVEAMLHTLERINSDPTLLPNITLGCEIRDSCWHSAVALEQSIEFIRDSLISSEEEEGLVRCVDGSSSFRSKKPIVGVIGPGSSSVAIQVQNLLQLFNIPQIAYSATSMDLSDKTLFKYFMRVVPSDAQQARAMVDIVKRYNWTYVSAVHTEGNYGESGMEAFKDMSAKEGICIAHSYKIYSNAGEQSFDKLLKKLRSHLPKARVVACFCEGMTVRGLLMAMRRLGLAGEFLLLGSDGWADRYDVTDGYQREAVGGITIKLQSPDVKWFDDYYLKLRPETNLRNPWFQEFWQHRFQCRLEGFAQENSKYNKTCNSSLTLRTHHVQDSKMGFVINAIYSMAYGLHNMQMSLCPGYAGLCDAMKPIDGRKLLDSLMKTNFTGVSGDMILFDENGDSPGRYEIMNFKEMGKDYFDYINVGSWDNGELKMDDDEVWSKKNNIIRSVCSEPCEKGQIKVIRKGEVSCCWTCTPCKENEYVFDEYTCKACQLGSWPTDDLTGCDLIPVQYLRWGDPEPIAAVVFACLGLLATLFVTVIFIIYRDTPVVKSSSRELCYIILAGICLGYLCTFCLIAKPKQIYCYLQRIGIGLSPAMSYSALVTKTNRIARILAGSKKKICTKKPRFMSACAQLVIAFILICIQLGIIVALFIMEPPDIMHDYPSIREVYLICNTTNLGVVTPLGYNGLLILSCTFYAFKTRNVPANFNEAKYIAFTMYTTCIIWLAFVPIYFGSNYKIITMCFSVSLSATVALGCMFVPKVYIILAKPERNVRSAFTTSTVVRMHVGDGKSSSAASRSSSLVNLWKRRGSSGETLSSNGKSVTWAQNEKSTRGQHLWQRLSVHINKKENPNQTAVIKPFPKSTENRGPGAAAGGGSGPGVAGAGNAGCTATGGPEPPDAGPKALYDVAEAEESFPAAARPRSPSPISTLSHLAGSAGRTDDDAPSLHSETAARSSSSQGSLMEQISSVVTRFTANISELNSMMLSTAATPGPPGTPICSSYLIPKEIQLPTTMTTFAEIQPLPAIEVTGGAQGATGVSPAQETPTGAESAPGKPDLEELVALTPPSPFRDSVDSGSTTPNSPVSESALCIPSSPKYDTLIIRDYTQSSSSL

This assay concerns the target T1, rat metabotropic glutamate receptor 5 (mGluR5) (Rattus norvegicus, UniProt P31424).
T1 construct: expressed in transfected cells; host or cells: HEK 293
Put plainly: Calcium mobilization assay (FLIPR) for negative or positive allosteric activity, HEK 293 cells. The format is cell-based. The note with it: HEK293, negative allosteric modulation, inhibition of EC80 glutamate response; read-out: FLIPR maximum inhibition. In outline:
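Peak Fluo-4 calcium signal over 3 min at room temperature, minus basal, fitted by Hill equation, in stable rat mGluR5 HEK 293 cells (HBSS/HEPES pH 7.4, BSA, probenecid). Inhibition scored against EC80 glutamate, potentiation against EC20 glutamate, glutamate given with compound.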
Consider `COc1cccc(C(=O)NC23CC4CC(C2)CC(NC(=O)c2ccccn2)(C4)C3)c1` [Example 80, Pyridine-2-carboxylic acid [3-(3-methoxy-benzoylamino)-adamantan-1-yl]-amide], for which the Emax was in the range of 63 to 99%.
Consider `COC(=O)c1cccc(C(=O)NC23CC4CC(CC(NC(=O)c5cccc(C)n5)(C4)C2)C3)n1` [Example 139, 6-{3-[(6-Methyl-pyridine-2-carbonyl)-amino]-adamantan-1-ylcarbamoyl}-pyridine-2-carboxylic acid methyl ester], for which the Emax fell in the range of 70 to 99%.
Take `Cc1cccc(C(=O)NC23CC4CC(CC(NC(=O)c5ccc6c(c5)OCCO6)(C4)C2)C3)n1` [Example 124, 6-Methyl-pyridine-2-carboxylic acid {3-[(2,3-dihydro-benzo[1,4]dioxine-6-carbonyl)-amino]-adamantan-1-yl}-amide]: the Emax was in the range of 70 to 99%.
With `Cc1cccc(C(=O)NC23CC4CC(C2)CC(NC(=O)c2nccs2)(C4)C3)n1` [Example 40, 6-Methyl-pyridine-2-carboxylic acid {3-[(thiazole-2-carbonyl)-amino]-adamantan-1-yl}-amide], the Emax is 63 to 99%.
As to `Cc1cccc(C(=O)NC23CC4CC(C2)CC(NC(=O)c2ccno2)(C4)C3)n1` [Example 31, 6-Methyl-pyridine-2-carboxylic acid {3-[(isoxazole-5-carbonyl)-amino]-adamantan-1-yl}-amide], the Emax is 63 to 99%.
With `CCn1ccc(C(=O)NC23CC4CC(CC(NC(=O)c5cccc(C)n5)(C4)C2)C3)n1` [Example 42, 6-Methyl-pyridine-2-carboxylic acid {3-[(1-ethyl-1H-pyrazole-3-carbonyl)-amino]-adamantan-1-yl}-amide], the Emax lay in the range of 63 to 99%.
Turning to `Cc1cc(C(=O)NC23CC4CC(C2)CC(NC(=O)c2cncc(C)n2)(C4)C3)ccn1` [Example 156, 6-Methyl-pyrazine-2-carboxylic acid {3-[(2-methyl-pyridine-4-carbonyl)-amino]-adamantan-1-yl}-amide], the Emax is 70 to 99%.
Turning to `Cc1cccc(C(=O)NC23CC4CC(CC(NC(=O)c5cccc(N(C)C)c5)(C4)C2)C3)n1` [Example 114, 6-Methyl-pyridine-2-carboxylic acid [3-(3-dimethyl-amino-benzoylamino)-adamantan-1-yl]-amide], the Emax lay in the range of 70 to 99%.
For the compound `CC(C)(C)OC(=O)N1CCc2cc(C(=O)NC34CC5CC(C3)CC(NC(=O)c3ccccn3)(C5)C4)ccc2C1` [Example 70, 6-{3-[(Pyridine-2-carbonyl)-amino]-adamantan-1-yl-carbamoyl}-3,4-dihydro-1H-isoquinoline-2-carboxylic acid tert-butyl ester], the Emax was in the range of 63 to 99%.
To `Cc1ccn2cc(C(=O)NC34CC5CC(CC(NC(=O)c6ccccn6)(C5)C3)C4)nc2c1` [Example 91, 7-Methyl-imidazo[1,2-a]pyridine-2-carboxylic acid {3-[(pyridine-2-carbonyl)-amino]-adamantan-1-yl}-amide] belongs 63 to 99%; to `CN(C)CCCN(C)c1cccc(C(=O)NC23CC4CC(CC(NC(=O)c5ccccn5)(C4)C2)C3)n1` [Example 221, 6-[(3-Dimethylamino-propyl)-methyl-amino]-pyridine-2-carboxylic acid {3-[(pyridine-2-carbonyl)-amino]-adamantan-1-yl}-amide], 63 to 99%.
As for `O=C(NC12CC3CC(C1)CC(NC(=O)c1ccnc(C(F)(F)F)n1)(C3)C2)c1cnccn1` [Example 190, 2-Trifluoromethyl-pyrimidine-4-carboxylic acid {3-[(pyrazine-2-carbonyl)-amino]-adamantan-1-yl}-amide], the Emax was in the range of 63 to 99%.
As for `Cc1cccc(C(=O)NC23CC4CC(CC(NC(=O)c5ccc6ocnc6c5)(C4)C2)C3)n1` [Example 122, Benzoxazole-5-carboxylic acid {3-[(6-methyl-pyridine-2-carbonyl)-amino]-adamantan-1-yl}-amide], the Emax is 70 to 99%.
As for `Cc1cncc(C(=O)NC23CC4CC(C2)CC(NC(=O)c2cc(F)ccc2F)(C4)C3)n1` [Example 148, 6-Methyl-pyrazine-2-carboxylic acid [3-(2,5-difluoro-benzoylamino)-adamantan-1-yl]-amide], the Emax was 70 to 99%.
As for `Cc1cc(C(=O)NC23CC4CC(CC(NC(=O)c5ccccn5)(C4)C2)C3)nc(C)n1` [Example 106, 2,6-Dimethyl-pyrimidine-4-carboxylic acid {3-[(pyridine-2-carbonyl)-amino]-adamantan-1-yl}-amide], the Emax lay in the range of 70 to 99%.
For the compound `Cc1ccn2cc(C(=O)NC34CC5CC(CC(NC(=O)c6cccc(C)n6)(C5)C3)C4)nc2c1` [Example 56, 7-Methyl-imidazo[1,2-a]pyridine-2-carboxylic acid {3-[(6-methyl-pyridine-2-carbonyl)-amino]-adamantan-1-yl}-amide], the Emax was 63 to 99%.
Take `NC(=O)CCNc1cccc(C(=O)NC23CC4CC(CC(NC(=O)c5cccc(F)c5)(C4)C2)C3)n1` [Example 252, 6-(2-Carbamoyl-ethylamino)-pyridine-2-carboxylic acid [3-(3-fluoro-benzoylamino)-adamantan-1-yl]-amide]: the Emax lay within 63 to 99%.
To `Cc1cncc(C(=O)NC23CC4CC(C2)CC(NC(=O)c2ccnc(C)n2)(C4)C3)n1` [Example 173, 2-Methyl-pyrimidine-4-carboxylic acid {3-[(6-methyl-pyrazine-2-carbonyl)-amino]-adamantan-1-yl}-amide] belongs 63 to 99%.
As to `CC(=O)NCCNc1cccc(C(=O)NC23CC4CC(CC(NC(=O)c5cccc(C)n5)(C4)C2)C3)n1` [Example 234, 6-(2-Acetylamino-ethylamino)-pyridine-2-carboxylic acid {3-[(6-methyl-pyridine-2-carbonyl)-amino]-adamantan-1-yl}-amide], the Emax lay within 63 to 99%.
With `CC(=O)NCCNc1cccc(C(=O)NC23CC4CC(CC(NC(=O)c5ccccn5)(C4)C2)C3)n1` [Example 223, 6-(2-Acetylamino-ethylamino)-pyridine-2-carboxylic acid {3-[(pyridine-2-carbonyl)-amino]-adamantan-1-yl}-amide], the Emax lay in the range of 63 to 99%.
For `Cc1ccnc(C(=O)NC23CC4CC(CC(NC(=O)c5cnccn5)(C4)C2)C3)n1` [Example 189, 4-Methyl-pyrimidine-2-carboxylic acid {3-[(pyrazine-2-carbonyl)-amino]-adamantan-1-yl}-amide], the Emax was 63 to 99%.
`Cc1cccc(C(=O)NC23CC4CC(C2)CC(NC(=O)c2cccc(C(F)(F)F)n2)(C4)C3)n1` [Example 23, 6-Trifluoromethyl-pyridine-2-carboxylic acid {3-[(6-methyl-pyridine-2-carbonyl)-amino]-adamantan-1-yl}-amide]: the Emax is 63 to 99%.
To `CN(CCO)c1cccc(C(=O)NC23CC4CC(CC(NC(=O)c5ccccn5)(C4)C2)C3)n1` [Example 202, 6-[(2-Hydroxy-ethyl)-methyl-amino]-pyridine-2-carboxylic acid {3-[(pyridine-2-carbonyl)-amino]-adamantan-1-yl}-amide] belongs 63 to 99%; to `O=C(NC12CC3CC(C1)CC(NC(=O)c1cccc(Cl)c1)(C3)C2)c1cccc(Cl)c1` [Example 3, N,N′-(1,3-adamantylene)bis(3-chloro-benzamide)], 90 to 99%.
